Source: patent US11053243B2 (Merck Sharp & Dohme Corp., priority 2009, dated 2021)

System: HCV genotype 1b replicon
Test: HCV replicon assay, genotype 1b
Format: cell-based, hepatitis C virus
Settings: Hepatitis C virus; genotype 1b replicon cells, 24 to 72 hours incubation, luciferase activity
Description: The HCV replicons and NS5A inhibitory activity of the present compounds may be tested using assays known in the art. HCV inhibitors, such as those described in the Examples herein have activities in genotype 1b, 2a and 1a replicon assays of from about 1 pM to about 1 μM. The assay is performed by incubating a replicon harboring cell-line in the presence of inhibitor for a set period of time and measuring the effect of the inhibitor on HCV replicon replication either directly by quantifying replicon RNA level, or indirectly by measuring enzymatic activity of a co-encoded reporter enzyme such as luciferase or β-lactamase. By performing a series of such measurements at different inhibitor concentrations, the effective inhibitory concentration of the inhibitor (EC50 or EC90) is determined. See Jan M. Vrolijk et al., A replicons-based bioassay for the measurement of interferons in patients with chronic hepatitis C, 110 J. VIROLOGICAL METHODS 201 (2003). Such assays may also be run in an automated format for high through-put screening. See Paul Zuck et al., A cell-based β-lactamase reporter gene assay for the identification of inhibitors of hepatitis C virus replication, 334 ANALYTICAL BIOCHEMISTRY 344 (2004).
Measurement of inhibition by compounds was performed using the HCV replicon system. Several different replicons encoding different HCV genotypes or mutations were used. In addition, potency measurements were made using different formats of the replicon assay, including different ways of measurements and different plating formats. See Jan M. Vrolijk et al., A replicons-based bioassay for the measurement of interferons in patients with chronic hepatitis C, 110 J. VIROLOGICAL METHODS 201 (2003); Steven S. Carroll et al., Inhibition of Hepatitis C Virus RNA Replication by 2′-Modified Nucleoside Analogs, 278(14) J. BIOLOGICAL CHEMISTRY 11979 (2003). However, the underlying principles are common to all of these determinations, and are outlined below.
Stable neomycin phosphotransferase encoding replicon-harboring cell lines were used, so all cell lines were maintained under G418 selection prior to the assay. In some cases, the cell lines encoded a luciferase:Neor fusion and could be assayed either directly by determination of RNA copy number, or indirectly through measurement of the luciferase activity.
To initiate an assay, replicon cells were plated in the presence of a dilution series of test compound in the absence of G418. Typically, the assays were performed in a 96-well plate format for manual operation, or a 384-well plate in an automated assay. Replicon cells and compound were incubated for 24 to 72 hours. At the end of the assay, cells are washed free of media and compound and then lysed. Luciferase activity was measured using a conventional luciferase assay. EC50 determinations were calculated as a percent of a DMSO control by fitting the data to a four parameter fit function.
The activity table below provides representative data illustrating observed activity against genotype 1b.

Compound	EC50 [nM]
CC(C)(C)OC(=O)N[C@@H](C(=O)N1CCC[C@H]1C(=O)Nc1ccc2[nH]c(-c3ccc(-c4cnc([C@@H]5CCCN5C(=O)[C@H](NC(=O)OC(C)(C)C)c5ccccc5)[nH]4)cc3)cc2c1)c1ccccc1 [Example 99, tert-butyl {(1R)-2-[(2S)-2-(5-{4-[5-({[(2S)-1-{(2R)-2-[(tert-butoxycarbonyl)amino]-2-phenylacetyl}pyrrolidin-2-yl]carbonyl}amino)-1H-indol-2-yl]phenyl}-1H-imidazol-2-yl)pyrrolidin-1-yl]-2-oxo-1-phenylethyl}carbamate]	0.038
CC(C)(C)OC(=O)N[C@@H](C(=O)N1CCC[C@H]1C(=O)Nc1ccc2[nH]c(-c3ccc(-c4cnc([C@@H]5CCCN5C(=O)OCc5ccccc5)[nH]4)cc3)cc2c1)c1ccccc1 [Example 100, benzyl (2S)-2-[5-(4-{5-[(1-{(2R)-2-[(tert-butoxycarbonyl)amino]-2-phenylacetyl}-L-prolyl)amino]-1H-indol-2-yl}phenyl)-1H-imidazol-2-yl]pyrrolidine-1-carboxylate]	0.031
CN(C)[C@@H](C(=O)N1CCC[C@H]1C(=O)Nc1ccc2[nH]c(-c3ccc(-c4cnc([C@@H]5CCCN5C(=O)[C@@H](c5ccccc5)N(C)C)[nH]4)cc3)cc2c1)c1ccccc1 [Example 101, 1-[(2R)-2-(dimethylamino)-2-phenylacetyl]-N-{2-[4-(2-{(2S)-1-[(2R)-2-(dimethylamino)-2-phenylacetyl]pyrrolidin-2-yl}-1H-imidazol-5-yl)phenyl]-1H-indol-5-yl}-L-prolinamide]	0.5
CC(C)(C)OC(=O)N[C@@H](C(=O)N1CCC[C@H]1C(=O)Nc1ccc2[nH]c(-c3ccc(-c4c[nH]cn4)cc3)cc2c1)c1ccccc1 [Example 102, tert-butyl {(1R)-2-[(2S)-2-({2-[4-(1H-imidazol-4-yl)phenyl]-1H-indol-5-yl}carbamoyl)pyrrolidin-1-yl]-2-oxo-1-phenylethyl}carbamate]	8.3
CN(C)[C@H](C(=O)N1CCC[C@H]1C(=O)Nc1ccc2[nH]c(-c3ccc(-c4cnc([C@@H]5CCCN5C(=O)[C@H](c5ccccc5)N(C)C)[nH]4)cc3)cc2c1)c1ccccc1 [Example 103, 1-[(2S)-2-(dimethylamino)-2-phenylacetyl]-N-{2-[4-(2-{(2S)-1-[(2S)-2-(dimethylamino)-2-phenylacetyl]pyrrolidin-2-yl}-1H-imidazol-5-yl)phenyl]-1H-indol-5-yl}-L-prolinamide]	5.7
CC(=O)N1CCC[C@H]1c1ncc(-c2ccc(-c3cc4cc(NC(=O)[C@@H]5CCCN5C(=O)[C@H](NC(=O)OC(C)(C)C)c5ccccc5)ccc4[nH]3)cc2)[nH]1 [Example 105, tert-butyl{(1R)-2-[(2S)-2-{[2-(4-{2-[(2S)-1-acetylpyrrolidin-2-yl]-1H-imidazol-5-yl}phenyl)-1H-indol-5-yl]carbamoyl}pyrrolidin-1-yl]-2-oxo-1-phenylethyl}carbamate]	0.08
CN(C)[C@@H](C(=O)N1CCC[C@H]1c1ncc(-c2ccc(-c3cc4cc(NC(=O)[C@@H]5CCCN5C(=O)[C@H](NC(=O)OC(C)(C)C)c5ccccc5)ccc4[nH]3)cc2)[nH]1)c1ccccc1 [Example 107, tert-butyl {(1R)-2-[(2S)-2-({2-[4-(2-{(2S)-1-[(2R)-2-(dimethylamino)-2-phenylacetyl]pyrrolidin-2-yl}-1H-imidazol-5-yl)phenyl]-1H-indol-5-yl}carbamoyl)pyrrolidin-1-yl]-2-oxo-1-phenylethyl}carbamate]	0.04
COC(=O)N[C@H](C(=O)N1CCC[C@H]1C(=O)Nc1ccc2[nH]c(-c3ccc(-c4cnc([C@@H]5CCCN5C(=O)[C@@H](NC(=O)OC)C(C)C)[nH]4)cc3)cc2c1)C(C)C [Example 116, N-(methoxycarbonyl)-L-valyl-N-{2-[4-(2-{(2S)-1-[N-(methoxycarbonyl)-L-valyl]pyrrolidin-2-yl}-1H-imidazol-5-yl)phenyl]-1H-indol-5-yl}-L-prolinamide]	0.065
CC(C)OC(=O)N[C@@H](C(=O)N1CCC[C@H]1C(=O)Nc1ccc2[nH]c(-c3ccc(-c4ncc([C@@H]5CCCN5C(=O)[C@H](NC(=O)OC(C)C)c5ccccc5)[nH]4)cc3)cc2c1)c1ccccc1 [Example 119, propan-2-yl [(1R)-2-oxo-1-phenyl-2-{(2S)-2-[2-(4-{5-[({(2S)-1-[(2R)-2-phenyl-2-{[(propan-2-yloxy)carbonyl]amino}acetyl]pyrrolidin-2-yl}carbonyl)amino]-1H-indol-2-yl}phenyl)-1H-imidazol-5-yl]pyrrolidin-1-yl}ethyl]carbamate]	0.013
CC(C)(C)OC(=O)N[C@@H](C(=O)N1CCC[C@H]1C(=O)Nc1ccc2[nH]c(-c3ccc4[nH]c([C@@H]5CCCN5C(=O)[C@H](NC(=O)OC(C)(C)C)c5ccccc5)nc4c3)cc2c1)c1ccccc1 [Example 125, tert-butyl [(1R)-2-{(2S)-2-[(2-{2-[(2S)-1-{(2R)-2-[(tert-butoxycarbonyl)amino]-2-phenylacetyl}pyrrolidin-2-yl]-1H-benzimidazol-5-yl}-1H-indol-5-yl)carbamoyl]pyrrolidin-1-yl}-2-oxo-1-phenylethyl]carbamate]	0.016
O=C(Nc1ccc(-c2[nH]c3ccc(NC(=O)[C@@H]4CCCN4C(=O)Cc4ccccc4)cc3c2F)cc1)[C@@H]1CCCN1C(=O)Cc1ccccc1 [Example 129, (2S)-N-{4-[3-fluoro-5-({[(2S)-1-(phenylacetyl)pyrrolidin-2-yl]carbonyl}amino)-1H-indol-2-yl]phenyl}-1-(phenylacetyl) pyrrolidine-2-carboxamide]	0.7
CC(C)(C)OC(=O)N[C@H](C(=O)N1CCC[C@H]1C(=O)Nc1ccc(-c2[nH]c3ccc(NC(=O)[C@@H]4CCCN4C(=O)[C@@H](NC(=O)OC(C)(C)C)c4ccccc4)cc3c2F)cc1)c1ccccc1 [Example 130, tert-butyl {(1S)-2-[(2S)-2-({4-[5-({[(2S)-1-{(2S)-2-[(tert-butoxycarbonyl)amino]-2-phenylacetyl}pyrrolidin-2-yl]carbonyl}amino)-3-fluoro-1H-indol-2-yl]phenyl}carbamoyl)pyrrolidin-1-yl]-2-oxo-1-phenylethyl}carbamate]	0.05
CC(=O)Nc1ccc(-c2[nH]c3ccc(NC(=O)[C@@H]4CCCN4C(=O)[C@@H](NC(=O)OC(C)(C)C)c4ccccc4)cc3c2Cl)cc1 [Example 131, tert-butyl {(1S)-2-[(2S)-2-({2-[4-(acetylamino)phenyl]-3-chloro-1H-indol-5-yl}carbamoyl)pyrrolidin-1-yl]-2-oxo-1-phenylethyl}carbamate]	17
CC(=O)N1CCC[C@H]1C(=O)Nc1ccc(-c2[nH]c3ccc(NC(=O)[C@@H]4CCCN4C(=O)[C@H](NC(=O)OC(C)(C)C)c4ccccc4)cc3c2F)cc1 [Example 137, tert-butyl {(1R)-2-[(2S)-2-({2-[4-({[(2S)-1-acetylpyrrolidin-2-yl]carbonyl}amino)phenyl]-3-fluoro-1H-indol-5-yl}carbamoyl)pyrrolidin-1-yl]-2-oxo-1-phenylethyl}carbamate]	0.009
CC(C)(C)OC(=O)N[C@@H](C(=O)N1CCC[C@H]1C(=O)Nc1ccc2[nH]c(-c3ccc(N4CCCC4=O)cc3)c(F)c2c1)c1ccccc1 [Example 138, tert-butyl {(1R)-2-[(2S)-2-({3-fluoro-2-[4-(2-oxopyrrolidin-1-yl)phenyl]-1H-indol-5-yl}carbamoyl)pyrrolidin-1-yl]-2-oxo-1-phenylethyl}carbamate]	8.5
CC(C)OC(=O)N[C@@H](C(=O)N1CCC[C@H]1C(=O)Nc1ccc(-c2[nH]c3ccc(NC(=O)[C@@H]4CCCN4C(=O)OC(C)(C)C)cc3c2F)cc1)c1ccccc1 [Example 144, tert-butyl (2S)-2-[(3-fluoro-2-{4-[({(2S)-1-[(2R)-2-phenyl-2-{[(propan-2-yloxy)carbonyl]amino}acetyl]pyrrolidin-2-yl}carbonyl)amino]phenyl}-1H-indol-5-yl)carbamoyl] pyrrolidine-1-carboxylate]	0.036
N#Cc1c(-c2ccc(NC(=O)[C@@H]3CCCN3C(=O)Cc3ccccc3)cc2)[nH]c2ccc(NC(=O)[C@@H]3CCCN3C(=O)Cc3ccccc3)cc12 [Example 155, (2S)—N-{4-[3-cyano-5-({[(2S)-1-(phenylacetyl)pyrrolidin-2-yl]carbonyl}amino)-1H-indol-2-yl]phenyl}-1-(phenylacetyl)pyrrolidine-2-carboxamide]	0.9
